Source: US20260242392A1, “ARYL TRICYCLIC STING AGONISTS AND USE THEREOF” (SHENZHEN GENUINE BIOTECHNOLOGY CO., LTD., priority 2023, published 2026)

Biological target: T1, Sting-HAQ (Homo sapiens, UniProt Q86WV6, G230A/H232R/R293Q/R71H)
T1 construct: host or cells: HEK293-HAQ Luc reporter cell line
Assay: HEK293-HAQ Luc reporter gene assay (Steady-Glo luciferase)
Type: cell-based
Settings: 24 h incubation; read-out: HEK293-HAQ Luc Report Assay (24 h) EC50
Procedure: Test Principle: The HEK293-HAQ Luc reporter cell line utilizes the chemiluminescent reaction property of luciferase binding to its substrate beetle luciferin. The regulatory elements of the Sting-HAQ gene transcription are cloned upstream/downstream of the firefly luciferase gene to construct a luciferase recombinant plasmid. The recombinant plasmid is then transfected into HEK293 cells. After treatment with compounds, the cells are lysed, and the luciferase activity is measured using the Steady-Glo® detection system (Cat #E2550) manufactured by Promega Corporation. The effect of compounds on the Sting-HAQ regulatory elements is determined based on the level of luciferase activity. The Steady Glo® Luciferase Assay System enables high-throughput evaluation of the degree of activation of reporter cell lines by compounds through the activity of luciferase in mammalian cells, and provides long-term stable luminescence when used with reporter cell lines. The detection system can sustain a signal half-life of more than 5 hours in the test cell culture medium, enabling uniform measurement without sample pretreatment.
Test Method: Complete medium (DMEM+10% FBS+1% P/S) was prepared. The Hek293-HAQ Luc reporter cell line was resuscitated and passaged twice. Cells in logarithmic growth phase were collected by centrifugation, counted, and resuspended to an appropriate concentration. The cell suspension was seeded into a 96-well plate at a density of 20000 cells/well, with 100 µL of the cell suspension added per well. Test compounds were prepared into stock solutions with DMSO, and serially diluted 3-fold with DMSO starting from the highest concentration of 100 mM to obtain 9 concentration gradients. The test compounds were diluted 47.62-fold with culture medium, and 5 μL of each dilution was added to the 96-well plate containing 100 μL of cells. To Min control wells were added 5 μL of DMSO-cell culture medium mixture (with a final DMSO concentration of 0.1%), while Max control wells received 5 μL of a positive reference compound. The plate was incubated at 37° C. in an incubator with 5% carbon dioxide and relative humidity above 90% for 24 h. Subsequently, 75 μL/well of […] was added to terminate the reaction. After shaking at 305 rpm for 10 min, the plates were detected on Envision. The […] value RLU of each well was read, and the activation rate was calculated according to the formula: Activation %=(Sample−Ave_L)/(Ave_H−Ave_L)×100, where Ave_L: RLU Min (0.1% DMSO), Ave_H: RLU Max (positive reference compound). The activation rate, Activation % (Y), corresponding to each concentration (X), was entered in EXCEL. The half-maximal effective concentration EC50 value of each compound was calculated according to the built-in four-parameter fitting formula Y=Bottom+(Top−Bottom)/(1+10^((LogEC50−X)*HillSlope)) using the XLfit plug-in.

T1 sequence (Q86WV6 whole entry R71H/G230A/H232R/R293Q): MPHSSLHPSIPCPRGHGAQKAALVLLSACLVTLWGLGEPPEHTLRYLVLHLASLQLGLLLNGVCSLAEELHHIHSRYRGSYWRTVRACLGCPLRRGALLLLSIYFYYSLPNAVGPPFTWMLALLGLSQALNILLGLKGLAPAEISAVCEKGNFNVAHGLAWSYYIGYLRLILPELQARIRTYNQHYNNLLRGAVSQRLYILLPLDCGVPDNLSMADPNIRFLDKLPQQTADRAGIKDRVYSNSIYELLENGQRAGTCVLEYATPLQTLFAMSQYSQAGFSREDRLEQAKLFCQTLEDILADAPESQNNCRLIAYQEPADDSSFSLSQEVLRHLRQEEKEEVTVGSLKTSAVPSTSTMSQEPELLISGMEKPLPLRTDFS

Row | SMILES | EC50
1 | COc1cc2sc(C(=O)CC(C)C(=O)O)cc2c2nc(N)oc12 (stereo not shown) | > 100 µM
2 | COc1cc2sc(C(=O)CCC(=O)O)cc2c2cnoc12 | > 100 µM
3 | COc1cc2sc(C(=O)C[C@H](C)C(=O)O)nc2c2nc(C)oc12 | 4.18 µM
4 | COc1cc2sc(C(=O)CCC(=O)O)cc2c2c1CCC2 | > 100 µM
5 | CCC(CC(=O)c1cc2c(cc(OC)c3oc(F)cc32)s1)C(=O)O (stereo not shown) | 0.823 µM
6 | CC[C@@H](CC(=O)c1cc2c(cc(OC)c3oc(C)cc32)s1)C(=O)O | 0.24 µM
7 | COc1cc2sc(C(=O)CCC(=O)O)cc2c2nc(C3CC3)oc12 | 90.7 µM
8 | [2H]C([2H])([2H])Oc1cc2sc(C(=O)C[C@H](C)C(=O)O)cc2c2cc(F)oc12 | 0.263 µM
9 | COc1cc2sc(C(=O)CCC(=O)O)cc2c2ccoc12 | 2.52 µM
10 | COc1cc2sc(C(=O)CCC(=O)O)nc2c2nc(C)oc12 | 18 µM
11 | COc1cc2sc(C(=O)C[C@H](C)C(=O)O)cc2c2cc(F)oc12 [drawing 673] | 0.465 µM
12 | COc1cc2sc(C(=O)C[C@H](C)C(=O)O)cc2c2cc(C)oc12 [drawing 660] | 0.341 µM
13 | COc1cc2sc(C(=O)CCC(=O)O)cc2c2nc[nH]c12 | > 100 µM
14 | CC[C@@H](CC(=O)c1cc2c(cc(OC)c3oc(F)cc32)s1)C(=O)O | 0.352 µM
15 | COc1cc2sc(C(=O)CC(C)C(=O)O)cc2c2ccoc12 (stereo not shown) | 2.2 µM
16 | COc1cc2sc(C(=O)CCC(=O)O)cc2c2ccsc12 | 10.7 µM
17 | CCC(CC(=O)c1cc2c(cc(OC)c3oc(C)nc32)s1)C(=O)O (stereo not shown) | 0.326 µM
18 | COc1cc2sc(C(=O)CCC(=O)O)cc2c2ncoc12 [drawing 622] | 1.23 µM
19 | COc1cc2sc(C(=O)C[C@@H](C)C(=O)O)cc2c2cc(F)oc12 | 6.87 µM
20 | COc1cc2sc(C(=O)CCC(=O)O)cc2c2nc(N)oc12 | > 100 µM
21 | [2H]c1c(C)oc2c(OC)cc3sc(C(=O)C[C@H](C)C(=O)O)cc3c12 | 0.313 µM
22 | COc1cc2sc(C(=O)CCC(=O)O)cc2c2cn(C)nc12 | 49 µM

Row | SMILES | EC50
23 | CCC(CC(=O)c1cc2c(cc(OC)c3oc(C)cc32)s1)C(=O)O (stereo not shown) | 0.565 µM
24 | COc1cc2sc(C(=O)CCC(=O)O)cc2c2cc(F)oc12 | 0.792 µM
25 | CC[C@@H](CC(=O)c1cc2c(cc(OC)c3ocnc32)s1)C(=O)O [drawing 659] | 0.302 µM
26 | COc1cc2sc(C(=O)C[C@@H](C)C(=O)O)cc2c2c(F)c(C)oc12 | 1.51 µM
27 | COc1cc2sc(C(=O)CCC(=O)O)cc2c2c1OCCO2 | > 100 µM
28 | COc1cc2sc(C(=O)CC(C)C(=O)O)cc2c2cc(F)oc12 (stereo not shown) | 0.57 µM
29 | COc1cc2sc(C(=O)CC(C)C(=O)O)cc2c2ncoc12 (stereo not shown) [drawing 631] | 1.12 µM
30 | COc1cc2sc(C(=O)CCC(=O)O)cc2c2cnn(C)c12 | > 100 µM
31 | CCC(CC(=O)c1cc2c(cc(OC)c3ocnc32)s1)C(=O)O (stereo not shown) | 0.308 µM
32 | CC[C@H](CC(=O)c1cc2c(cc(OC)c3oc(F)cc32)s1)C(=O)O | 4.1 µM
33 | CC[C@H](CC(=O)c1cc2c(cc(OC)c3oc(C)cc32)s1)C(=O)O | 4.46 µM
34 | Cn1cc2c(ccc3sc(C(=O)CCC(=O)O)cc32)n1 | 41.8 µM
35 | O=C(O)CCC(=O)c1cc2c(ccc3[nH]ncc32)s1 | > 100 µM
36 | COc1cc2sc(C(=O)CCC(=O)O)cc2c2cc(C)oc12 | 1.04 µM
37 | Cn1ncc2c3cc(C(=O)CCC(=O)O)sc3ccc21 | > 100 µM
38 | COc1cc2sc(C(=O)CCC(=O)O)cc2c2nc(C)oc12 [drawing 626] | 1.58 µM
39 | COc1cc2sc(C(=O)C[C@@H](C)C(=O)O)nc2c2nc(C)oc12 | 67.7 µM
40 | COc1cc2sc(C(=O)CCC(=O)O)c(C)c2c2cc(C)oc12 | 19 µM
41 | COc1cc2sc(C(=O)CCC(=O)O)c(C)c2c2nc(N)oc12 | > 100 µM
42 | COc1cc2sc(C(=O)CCC(=O)O)cc2c2ccn(C)c12 | > 100 µM
43 | COc1cc2sc(C(=O)CCC(=O)O)c(C)c2c2ncoc12 | 58 µM
44 | COc1cc2sc(C(=O)CCC(=O)O)cc2c2ocnc12 | 2.5 µM

Row | SMILES | EC50
45 | C[C@@H](CC(=O)c1cc2c(cc(O)c3oc(F)cc32)s1)C(=O)O | 29.3 µM
46 | COc1cc2cc(C(=O)CCC(=O)O)sc2cc1OC [MAS-2, reference compound] | 2.59 µM
47 | COc1cc2sc(C(=O)CCC(=O)O)cc2c2nc(C(C)C)oc12 | > 100 µM
48 | C[Si](C)(C)CCOCn1cc2c(ccc3sc(C(=O)CCC(=O)O)cc32)n1 | > 100 µM
49 | COc1cc2sc(C(=O)CCC(=O)O)cc2c2c1ncn2C | > 100 µM
50 | C[Si](C)(C)CCOCn1ncc2c3cc(C(=O)CCC(=O)O)sc3ccc21 | > 100 µM
51 | COc1cc2sc(C(=O)CCC(=O)O)cc2c2c1OCC2 | 7.87 µM
52 | COc1cc2sc(C(=O)C[C@H](C)C(=O)O)cc2c2c(F)c(C)oc12 [drawing 678] | 0.19 µM
53 | COc1cc2sc(C(=O)CC(C)C(=O)O)nc2c2cc(C)oc12 (stereo not shown) | 2.34 µM
54 | COc1cc2sc(C(=O)CC(C)C(=O)O)c(C)c2c2ncoc12 (stereo not shown) | 92 µM
55 | CCC(CC(=O)c1cc2c(cc(OC)c3occc32)s1)C(=O)O (stereo not shown) | 0.979 µM
56 | COc1cc2sc(C(=O)C[C@H](C)C(=O)O)cc2c2ncoc12 [drawing 651] | 0.16 µM
57 | COc1cc2sc(C(=O)C(C)CC(=O)O)nc2c2nc(C)oc12 (stereo not shown) | 59.9 µM
58 | COc1cc2sc(C(=O)C[C@@H](C)C(=O)O)cc2c2ncoc12 | 5.81 µM
59 | COc1cc2sc(C(=O)CCC(=O)O)cc2c2ncn(C)c12 | > 100 µM
60 | COc1cc2sc(C(=O)CC(C)C(=O)O)nc2c2nc(C)oc12 (stereo not shown) | 3.32 µM
61 | COc1cc2sc(C(=O)CC(C)C(=O)O)cc2c2cc(C)oc12 (stereo not shown) | 1.2 µM
62 | CCc1nc2c(o1)c(OC)cc1sc(C(=O)CCC(=O)O)cc12 | 36 µM
63 | COc1cc2sc(C(=O)CC(C)C(=O)O)c(C)c2c2nc(N)oc12 (stereo not shown) | > 100 µM
64 | COc1cc2sc(C(=O)CCC(=O)O)c(C)c2c2ccoc12 | 29.8 µM

System: not listed separately
Assay: Pharmacokinetic (PK) study in ICR mice, IV and PO
Settings: ICR, mouse, plasma, iv, 2 mg/kg
Procedure: The doses for IV and PO were 2 mg/kg and 5 mg/kg, respectively. Blood was collected at different time points after IV and PO administration and placed in heparinized tubes. Plasma was separated and frozen in a −20° C. refrigerator. Plasma was processed and then analyzed by LCMS/MS. Pharmacokinetic parameters of drug administration were calculated using a non-compartmental model in WinNonlin 8.2 software.

Row | SMILES | AUC(0-t) | Vd | clearance | half-life
65 | COc1cc2sc(C(=O)C[C@H](C)C(=O)O)cc2c2c(F)c(C)oc12 [Compound 59] | 5.5 µg·h/mL | 0.191 L/kg | 0.362 L/h/kg | 2.35 h
66 | COc1cc2sc(C(=O)CCC(=O)O)cc2c2nc(C)oc12 [Example 6, 4-(4-methoxy-2-methylthieno[2′,3′:5,6]benzo[1,2-d]oxazol-7-yl)-4-oxobutanoic acid] | 4.24 µg·h/mL | 0.264 L/kg | 0.471 L/h/kg | 1.11 h
67 | COc1cc2sc(C(=O)C[C@H](C)C(=O)O)cc2c2cc(F)oc12 [Example 62, (S)-4-(2-fluoro-4-methoxythieno[3,2-e]benzofuran-7-yl)-2-methyl-4-oxobutanoic acid] | 4.3 µg·h/mL | 0.49 L/kg | 0.454 L/h/kg | 2.68 h
68 | COc1cc2sc(C(=O)C[C@H](C)C(=O)O)cc2c2cc(C)oc12 [Example 32] | 3.71 µg·h/mL | 0.252 L/kg | 0.539 L/h/kg | 0.821 h
69 | COc1cc2cc(C(=O)CCC(=O)O)sc2cc1OC [MAS-2, reference compound] | 1.01 µg·h/mL | 0.343 L/kg | 1.98 L/h/kg | 0.431 h
70 | COc1cc2sc(C(=O)CCC(=O)O)cc2c2ncoc12 [Compound 1, 4-(4-methoxythieno[2′,3′:5,6]benzo[1,2-d]oxazol-7-yl)-4-oxobutanoic acid] | 0.66 µg·h/mL | 0.76 L/kg | 3.02 L/h/kg | 0.658 h

Same assay, conditions: ICR, mouse, plasma, po, 5 mg/kg

Row | SMILES | AUC(0-t) | Cmax | bioavailability | half-life
71 | COc1cc2sc(C(=O)C[C@H](C)C(=O)O)cc2c2c(F)c(C)oc12 [Compound 59] | 5.18 µg·h/mL | 7.7 µg/mL | 38% | 1.1 h
72 | COc1cc2sc(C(=O)CCC(=O)O)cc2c2nc(C)oc12 [Example 6, 4-(4-methoxy-2-methylthieno[2′,3′:5,6]benzo[1,2-d]oxazol-7-yl)-4-oxobutanoic acid] | 3.68 µg·h/mL | 4.28 µg/mL | 42.5% | 2.64 h
73 | COc1cc2sc(C(=O)C[C@H](C)C(=O)O)cc2c2cc(F)oc12 [Example 62, (S)-4-(2-fluoro-4-methoxythieno[3,2-e]benzofuran-7-yl)-2-methyl-4-oxobutanoic acid] | 10.2 µg·h/mL | 10.1 µg/mL | 92.9% | 3.05 h
74 | COc1cc2sc(C(=O)C[C@H](C)C(=O)O)cc2c2cc(C)oc12 [Example 32] | 3.45 µg·h/mL | 5.36 µg/mL | 37.4% | 0.925 h
75 | COc1cc2cc(C(=O)CCC(=O)O)sc2cc1OC [MAS-2, reference compound] | 1.53 µg·h/mL | 2.81 µg/mL | 61.2% | 1.63 h
76 | COc1cc2sc(C(=O)CCC(=O)O)cc2c2ncoc12 [Compound 1, 4-(4-methoxythieno[2′,3′:5,6]benzo[1,2-d]oxazol-7-yl)-4-oxobutanoic acid] | 0.757 µg·h/mL | 1.27 µg/mL | 47% | 1.56 h

Same assay, conditions: mouse PK, injection 2 mg/kg and oral 5 mg/kg

Row | SMILES | clearance in vivo compared to MAS-2 | exposure in vivo compared to MAS-2
77 | COc1cc2sc(C(=O)C[C@H](C)C(=O)O)cc2c2c(F)c(C)oc12 [Compound 59] | lower clearance | higher exposure

Same assay, conditions: mouse PK, oral administration at 5 mg/kg

Row | SMILES | oral availability
78 | COc1cc2cc(C(=O)CCC(=O)O)sc2cc1OC [MAS-2, reference compound] | 61.23%
